Consider one compound from patent US9333265B2, “Organic-inorganic hybrid composite of polymerized nitroxide compound and inorganic particles” (UNIVERSITY OF TSUKUBA, priority 2012, dated 2016).

For series [1] the following is noted: high-dosage administration; cited from earlier work.
The nature of series [2]: Blood uptake suppression after intraperitoneal administration (ESR signal in blood). It counts as in vivo. The text has this:
Normally, low-molecular-weight compounds are taken up into the blood after intraperitoneal administration, and are at risk of dispersing throughout the body.

SMILES strings stand for the structures.

In the case of `CC1(C)CCCC(C)(C)N1[O]` [TEMPO], the side-effects result in series [1] is “reduced blood pressure and inhibition of the mitochondrial energy-transfer system”. Moreover, the “presence in blood after intraperitoneal administration (ESR signal)” value in series [2] is “present in blood for an hour or more”.
